Test results taken from patent US8440708B2, “Triazole-substituted arylamides as P2X3 and P2X2/3 antagonists” (Roche Palo Alto LLC, priority 2007, dated 2013).

What was measured:
[1] = biological target: T1, rat P2X3 receptor (Rattus norvegicus, UniProt P49654); experiment: P2X3/P2X2/3 FLIPR (Fluorometric Imaging Plate Reader) Assay, P2X3; type: cell-based; conditions: CHO-K1 cells transfected with rat P2X3; agonist α,β-meATP 1 μM; Table 1; read-out: P2X3 pKi (converted)
T1 construct: expressed in transfected cells; host or cells: CHO-K1
T1 sequence (P49654 1-397): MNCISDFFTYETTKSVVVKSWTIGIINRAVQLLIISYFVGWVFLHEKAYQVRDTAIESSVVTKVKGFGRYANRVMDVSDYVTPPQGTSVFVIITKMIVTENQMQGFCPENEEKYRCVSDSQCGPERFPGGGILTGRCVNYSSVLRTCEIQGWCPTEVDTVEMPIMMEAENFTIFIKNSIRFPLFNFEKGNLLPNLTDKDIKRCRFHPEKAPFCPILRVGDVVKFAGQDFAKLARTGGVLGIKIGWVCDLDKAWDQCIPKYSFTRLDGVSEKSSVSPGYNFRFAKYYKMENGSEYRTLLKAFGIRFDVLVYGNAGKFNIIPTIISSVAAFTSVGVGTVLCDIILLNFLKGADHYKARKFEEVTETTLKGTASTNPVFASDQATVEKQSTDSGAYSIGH
Summary of the method: (§1)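 Inhibition curves came from nonlinear regression of peak fluorescence after α,β-meATP, given at 1 μM final for rat P2X3 and 5 μM for human P2X2/3. Compounds sat 20 min at room temperature on Fluo-3-loaded transfected CHO-K1 cells in HBSS/HEPES/2 mM CaCl2/probenecid buffer before agonist.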

[2] = biological target: T2, human P2X2/3 receptor (Homo sapiens, UniProt P56373+Q9UBL9); experiment: P2X3/P2X2/3 FLIPR (Fluorometric Imaging Plate Reader) Assay, P2X2/3; type: cell-based; conditions: CHO-K1 cells transfected with human P2X2/3; agonist α,β-meATP 5 μM; Table 1; read-out: P2X2/3 pKi (converted)
T2 construct: expressed in transfected cells; host or cells: CHO-K1
T2 sequence (Q9UBL9 1-471): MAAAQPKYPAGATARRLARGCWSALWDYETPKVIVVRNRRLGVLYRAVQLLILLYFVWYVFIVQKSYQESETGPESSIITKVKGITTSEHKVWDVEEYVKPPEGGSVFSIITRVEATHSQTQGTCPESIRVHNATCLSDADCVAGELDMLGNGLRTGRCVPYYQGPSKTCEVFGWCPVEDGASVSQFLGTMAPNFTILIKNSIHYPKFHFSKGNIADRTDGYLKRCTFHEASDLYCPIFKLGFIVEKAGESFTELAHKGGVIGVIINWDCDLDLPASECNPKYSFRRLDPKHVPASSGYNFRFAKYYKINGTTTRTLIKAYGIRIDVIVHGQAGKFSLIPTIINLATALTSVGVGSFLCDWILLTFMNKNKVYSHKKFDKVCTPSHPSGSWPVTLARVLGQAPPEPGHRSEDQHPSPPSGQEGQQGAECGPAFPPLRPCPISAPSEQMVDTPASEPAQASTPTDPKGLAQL
T2 sequence (P56373 1-397): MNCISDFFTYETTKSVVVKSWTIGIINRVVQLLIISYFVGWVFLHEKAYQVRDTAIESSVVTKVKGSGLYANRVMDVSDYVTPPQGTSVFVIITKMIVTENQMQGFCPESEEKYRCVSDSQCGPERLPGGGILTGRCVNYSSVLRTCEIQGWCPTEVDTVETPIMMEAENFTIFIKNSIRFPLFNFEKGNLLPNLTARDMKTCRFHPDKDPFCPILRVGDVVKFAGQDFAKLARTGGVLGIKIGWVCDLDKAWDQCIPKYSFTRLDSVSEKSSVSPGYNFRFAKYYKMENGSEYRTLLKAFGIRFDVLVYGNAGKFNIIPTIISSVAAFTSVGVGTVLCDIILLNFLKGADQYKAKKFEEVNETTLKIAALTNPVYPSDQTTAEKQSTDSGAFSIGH
Summary of the method: as §1

SMILES | Ki [1] [nM] | Ki [2] [nM]
Cc1ccc(-c2cc(C(=O)NCc3cnc(C)cn3)cc(-n3ncnc3C3CCC3)c2)nc1 [Compound 86, 3-(5-Cyclobutyl-[1,2,4]triazol-1-yl)-N-(5-methyl-pyrazin-2-ylmethyl)-5-(5-methyl-pyridin-2-yl)-benzamide] | 2.29 | 33.1
Cc1cnc(CNC(=O)c2cc(-c3ccc(Cl)cn3)cc(-n3ncnc3CC(C)C)c2)cn1 [Compound 89, 3-(5-Chloro-pyridin-2-yl)-5-(5-isobutyl-[1,2,4]triazol-1-yl)-N-(5-methyl-pyrazin-2-ylmethyl)-benzamide] | 4.17 | 89.1
CC(C)Cc1ncnn1-c1cc(C(=O)N[C@@H](C)CO)cc(-c2ccc(Cl)cn2)c1 [Compound 90, 3-(5-Chloro-pyridin-2-yl)-N-((S)-2-hydroxy-1-methyl-ethyl)-5-(5-isobutyl-[1,2,4]triazol-1-yl)-benzamide] | 4.07 | 646
Cc1cnc(CNC(=O)c2cc(-c3ccc(Cl)cn3)cc(-n3ncnc3CF)c2)cn1 [Compound 92, 3-(5-Chloro-pyridin-2-yl)-5-(5-fluoromethyl-[1,2,4]triazol-1-yl)-N-(5-methyl-pyrazin-2-ylmethyl)-benzamide] | 21.4 | 2570
C[C@@H](CO)NC(=O)c1cc(-c2ccc(Cl)cn2)cc(-n2ncnc2CF)c1 [Compound 93, 3-(5-Chloro-pyridin-2-yl)-5-(5-fluoromethyl-[1,2,4]triazol-1-yl)-N-((S)-2-hydroxy-1-methyl-ethyl)-benzamide] | 575 | 10000
Cc1ccc(-c2cc(C(=O)NC3CC3)cc(-n3ncnc3C(F)(F)F)c2)nc1 [Compound 96, N-Cyclopropyl-3-(5-methyl-pyridin-2-yl)-5-(5-trifluoromethyl-[1,2,4]triazol-1-yl)-benzamide] | 4.57 | 1260
Cc1ccc(-c2cc(C(=O)NCc3cnc(C)cn3)cc(-n3ncnc3C)c2)nc1 [Compound 101, N-(5-Methyl-pyrazin-2-ylmethyl)-3-(5-methyl-pyridin-2-yl)-5-(5-methyl-[1,2,4]triazol-1-yl)-benzamide] | 7.94 | 1150
Cc1ccc(-c2cc(C(=O)NC(C)CN(C)C)cc(-n3ncnc3C(C)N(C)C)c2)cc1 (centres unmarked) [Compound 103, 5-[5-(1-Dimethylamino-ethyl)-[1,2,4]triazol-1-yl]-4′-methyl-biphenyl-3-carboxylic acid (2-dimethylamino-1-methyl-ethyl)-amide] | 724 | 10000
Cc1ccc(-c2cc(C(=O)NC3CC3)cc(-n3ncnc3C(C)N(C)C)c2)cc1 (centres unmarked) [Compound 104, 5-[5-(1-Dimethylamino-ethyl)-[1,2,4]triazol-1-yl]-4′-methyl-biphenyl-3-carboxylic acid cyclopropylamide] | 7.76 | 407
Cc1ccc(-c2cc(C(=O)N[C@@H](C)CO)cc(-n3ncnc3C(C)N(C)C)c2)cc1 (stereo partly drawn) [Compound 105, 5-[5-(1-Dimethylamino-ethyl)-[1,2,4]triazol-1-yl]-4′-methyl-biphenyl-3-carboxylic acid ((S)-2-hydroxy-1-methyl-ethyl)-amide] | 5.25 | 646
CCc1ncnn1-c1cc(C(=O)N[C@@H](C)CO)cc(-c2ccc(Cl)cn2)c1 [Compound 107, 3-(5-Chloro-pyridin-2-yl)-5-(5-ethyl-[1,2,4]triazol-1-yl)-N-((S)-2-hydroxy-1-methyl-ethyl)-benzamide] | 148 | 10000
CCc1ncnn1-c1cc(C(=O)NC2CC2)cc(-c2ccc(Cl)cn2)c1 [Compound 108, 3-(5-Chloro-pyridin-2-yl)-N-cyclopropyl-5-(5-ethyl-[1,2,4]triazol-1-yl)-benzamide] | 97.7 | 4270
CCCc1ncnn1-c1cc(C(=O)NCc2cnc(C)cn2)cc(-c2ccc(Cl)cn2)c1 [Compound 109, 3-(5-Chloro-pyridin-2-yl)-N-(5-methyl-pyrazin-2-ylmethyl)-5-(5-propyl-[1,2,4]triazol-1-yl)-benzamide] | 5.5 | 372
CCCc1ncnn1-c1cc(C(=O)N[C@@H](C)CO)cc(-c2ccc(Cl)cn2)c1 [Compound 111, 3-(5-Chloro-pyridin-2-yl)-N-((S)-2-hydroxy-1-methyl-ethyl)-5-(5-propyl-[1,2,4]triazol-1-yl)-benzamide] | 18.2 | 4900

The next lines start with the values.

Ki [1] [nM] | Ki [2] [nM] | SMILES
2.63 | 35.5 | Cc1ccc(-c2cc(C(=O)NC(C)c3cnccn3)cc(-n3ncnc3C3CCC3)c2)nc1 (centres unmarked) [Compound 87, 3-(5-Cyclobutyl-[1,2,4]triazol-1-yl)-5-(5-methyl-pyridin-2-yl)-N-(1-pyrazin-2-yl-ethyl)-benzamide]
31.6 | 2950 | CC(NC(=O)c1cc(-c2ccc(Cl)cn2)cc(-n2ncnc2CF)c1)c1cnccn1 (centres unmarked) [Compound 91, 3-(5-Chloro-pyridin-2-yl)-5-(5-fluoromethyl-[1,2,4]triazol-1-yl)-N-(1-pyrazin-2-yl-ethyl)-benzamide]
12.3 | 10000 | Cc1ccc(-c2cc(C(=O)N[C@@H](C)CO)cc(-n3ncnc3C(C)(C)C)c2)nc1 [Compound 94, 3-(5-tert-Butyl-[1,2,4]triazol-1-yl)-N-((S)-2-hydroxy-1-methyl-ethyl)-5-(5-methyl-pyridin-2-yl)-benzamide]
5.37 | 117 | Cc1ccc(-c2cc(C(=O)NC(C)c3cnccn3)cc(-n3ncnc3C(C)(C)C)c2)nc1 (centres unmarked) [Compound 95, 3-(5-tert-Butyl-[1,2,4]triazol-1-yl)-5-(5-methyl-pyridin-2-yl)-N-(1-pyrazin-2-yl-ethyl)-benzamide]
8.13 | 4680 | Cc1ccc(-c2cc(C(=O)N[C@@H](C)CO)cc(-n3ncnc3C(F)(F)F)c2)nc1 [Compound 97, N-((S)-2-Hydroxy-1-methyl-ethyl)-3-(5-methyl-pyridin-2-yl)-5-(5-trifluoromethyl-[1,2,4]triazol-1-yl)-benzamide]
2.24 | 45.7 | Cc1ccc(-c2cc(C(=O)NC(C)c3cnccn3)cc(-n3ncnc3C(F)(F)F)c2)nc1 (centres unmarked) [Compound 98, 3-(5-Methyl-pyridin-2-yl)-N-(1-pyrazin-2-yl-ethyl)-5-(5-trifluoromethyl-[1,2,4]triazol-1-yl)-benzamide]
3.24 | 36.3 | Cc1ccc(-c2cc(C(=O)NCc3cnc(C)cn3)cc(-n3ncnc3C(F)(F)F)c2)nc1 [Compound 99, N-(5-Methyl-pyrazin-2-ylmethyl)-3-(5-methyl-pyridin-2-yl)-5-(5-trifluoromethyl-[1,2,4]triazol-1-yl)-benzamide]
10.2 | 2040 | Cc1ccc(-c2cc(C(=O)NC(C)c3cnccn3)cc(-n3ncnc3C)c2)nc1 (centres unmarked) [Compound 100, 3-(5-Methyl-pyridin-2-yl)-5-(5-methyl-[1,2,4]triazol-1-yl)-N-(1-pyrazin-2-yl-ethyl)-benzamide]
263 | 10000 | Cc1ccc(-c2cc(C(=O)N[C@@H](C)CO)cc(-n3ncnc3C)c2)nc1 [Compound 102, N-((S)-2-Hydroxy-1-methyl-ethyl)-3-(5-methyl-pyridin-2-yl)-5-(5-methyl-[1,2,4]triazol-1-yl)-benzamide]
19.1 | 759 | CCc1ncnn1-c1cc(C(=O)NC(C)c2cnccn2)cc(-c2ccc(Cl)cn2)c1 (centres unmarked) [Compound 106, 3-(5-Chloro-pyridin-2-yl)-5-(5-ethyl-[1,2,4]triazol-1-yl)-N-(1-pyrazin-2-yl-ethyl)-benzamide]
7.24 | 355 | CCCc1ncnn1-c1cc(C(=O)NC(C)c2cnccn2)cc(-c2ccc(Cl)cn2)c1 (centres unmarked) [Compound 110, 3-(5-Chloro-pyridin-2-yl)-5-(5-propyl-[1,2,4]triazol-1-yl)-N-(1-pyrazin-2-yl-ethyl)-benzamide]
